Measurements from patent publication US20260335388A1, “COMBINATION THERAPIES WITH ONCOLYTIC ADENOVIRUS AND TOPOISOMERASE I INHIBITORS OR PRODRUGS THEREOF” (priority 2022, published 2026).
Like-named read-outs stand apart in the source and are kept apart here.

Columns and labels:
Y79 tumors = type: in vivo, mouse; conditions: systemic drug after intratumoral VCN-01 3×10E^9 vp/tumor; 5 or 15 days (FIGS. 2A-B)
E1a = experiment: Immunoblot of E1a / E2F-1 in VCN-01-infected Y79 cells with further chemotherapeutics; type: cell-based; conditions: for expression of E2F-1 and E1A: Y79 cells pre-exposed to VCN-01 (FIG. 13H); for expression of VCN-01 proteins (E1a): VCN-01 50 MOI, drug added at 24 h, lysis at 48 h (FIG. 7)
Experimental: 2 million Y79 retinoblastoma cells were infected with 50 MOIs of VCN-01. […] Etoposide is topoisomerase 2 inhibitor.
In all experiments, 6-well culture plates containing 2×10^6 cells were used. […] The experiments were controlled by adding culture medium instead of the second treatment. […] The analyses were expanded to other chemotherapeutic agents including hydroxyurea ([…]), etoposide (2 μM), irinotecan (10 μM) or SN-38 (1 μM).
Near-infrared labeled secondary antibodies (Odyssey CLx, LI-COR Inc. Bad Homburg, Germany) were used for detection.

[1] = system: Y79 cells and primary retinoblastoma cultures; type: cell-based
[2] = system: HSJD-RBVS-10 retinoblastoma cells; experiment: cells; type: cell-based; conditions: Homo sapiens
[3] = system: HSJD-RBT-5 retinoblastoma cells; experiment: cells; type: cell-based; conditions: Homo sapiens
Y79 retinoblastoma cells = experiment: cells; type: cell-based
retinoblastoma cells = type: cell-based
[4] = system: HSJD-RBT-7 retinoblastoma cells; experiment: cells; type: cell-based; conditions: Homo sapiens
[5] = system: HSJD-NB-005 neuroblastoma; experiment: Antitumor activity in neuroblastoma PDX HSJD-NB-005; type: in vivo, mouse; conditions: single treatment (FIG. 24D,F)
Experimental: PDX of neuroblastoma (pediatric solid tumor) were implanted subcutaneously into athymic nude mice. Tumor model was HSJD-NB-005. Upon engraftment (tumor volumes ranging 100-500 mm^3), treatments were started. The activity of topotecan vs. irinotecan in combination with VCN-01 was evaluated. The following groups of mice were included in the study, with an n of 6 tumors per group: • Group 1: no treatment • Group 2: topotecan i.p. at 0.6 mg/kg, Day 1-5 • Group 3: irinotecan i.p. at 10 mg/kg, Day 1-5 • Group 4: VCN-01 i.t at 3E9 vp/tumor, Day 1 • Group 5: VCN-01 i.t at 3E9 vp/tumor, Day 1 (morning)+topotecan i.p. at 0.6 mg/kg, Day 1-5 • Group 6: VCN-01 i.t at 3E9 vp/tumor, Day 1 (morning)+irinotecan i.p. at 10 mg/kg, Day 1-5
Antitumor activity in extracranial pediatric solid tumors. 5-10 mm^3 fresh fragments of Ewing sarcoma or neuroblastoma PDX were implanted in both flanks of mice. Upon s.c. engraftment (tumor volume 150-200 mm^3), mice received topotecan (0.6 mg/kg, i.p., days 1-5), VCN-01 (3×10^9 vp in 20 µL vehicle, intratumoral, day 1), or the combination. In two additional groups, an alternative topoisomerase 1 inhibitor, irinotecan (10 mg/kg, i.p., on days 1-5) we used in place of topotecan. Upon completion of treatments, tumor volumes were followed until endpoint (1500 mm^3), or until day 80.

[6] = read-out: IC50, Melphalan single agent
[7] = read-out: IC50, Melphalan with VCN-01 (10 MOI)

How did the “VCN-01 genome content in tumors” value (Y79 tumors) turn out when NC(=O)NO [hydroxyurea] was run?
The value was “the enhancement of VCN-01 replication in vivo appears to be specific to topotecan”.

What about the “expression of E2F-1 and E1A” value (E1a) of the same compound?
Its value is “did not modify the levels of these proteins”.

And the “transgene expression, virus first” value ([1]; cells pre-infected with AdTLRGDK (FIG. 18E, FIG. 19A))?
Its value is “increased transgene expression”.

And the “viral transduction, drug first” value ([1]; drug exposure before viral infection (FIG. 18E))?
Its value is “did not enhance viral transduction”.

What does the source list for N[C@@H](Cc1ccc(N(CCCl)CCCl)cc1)C(=O)O [Melphalan, melphalan]?
IC50 [2, 6]: 241 nM; IC50 [2, 7]: 2020 nM; IC50 [3, 6]: 478 nM; IC50 [3, 7]: 636 nM; IC50 (Y79 retinoblastoma cells; [6]): 3250 nM; IC50 (Y79 retinoblastoma cells; [7]): 5830 nM; cell sensitivity to drug after VCN-01 infection (retinoblastoma cells): decreased cell sensitivity; IC50 [4, 6]: 1420 nM; IC50 [4, 7]: 8480 nM

Which results are given for SN-38?
expression of VCN-01 proteins (E1a) (E1a): increases expression of VCN-01 proteins; expression of E2F-1 and E1A (E1a): increased the expression of E2F-1 and E1A similarly to topotecan

CCc1c2c(nc3ccc(OC(=O)N4CCC(N5CCCCC5)CC4)cc13)-c1cc3c(c(=O)n1C2)COC(=O)[C@]3(O)CC [irinotecan] was tested. Which “response of xenograft to single treatment” value [5] did it give?
Its value is “highly resistant”.

And the “expression of VCN-01 proteins (E1a)” value (E1a)?
The value was “does not work in vitro”.

Which “expression of VCN-01 proteins (E1a)” value (E1a) does the source give for COc1cc([C@@H]2c3cc4c(cc3[C@@H](O[C@@H]3O[C@@H]5CO[C@@H](C)O[C@H]5[C@H](O)[C@H]3O)[C@H]3COC(=O)[C@H]23)OCO4)cc(OC)c1O [etoposide] here?
Its value is “does not induce the same effect”.

What about the “expression of E2F-1 and E1A” value (E1a) of the same compound?
Its value is “did not modify the levels of these proteins”.
